Test results published in US9580430B2, “9H-pyrimido[4,5-B]indoles and related analogs as BET bromodomain inhibitors” (THE REGENTS OF THE UNIVERSITY OF MICHIGAN, priority 2014, dated 2017).

Key:
[1] = tested on: 5 prostate cancer and 1 benign prostate cell line; test: Cell viability assay, panel of prostate cell lines (Cell-Titer GLO); assay type: cell-based; conditions: three of the AR-signaling positive cells; FIG. 1
Experimental: VCaP prostate cancer cells were grown in DMEM with Glutamax (Gibco), LNCaP, 22RV1, DU145 and PC3 prostate cancer cell lines were grown in RPMI 1640, all were supplemented with 10% FBS (Invitrogen) in 5% CO2 cell culture incubator. The immortalized benign prostate cell line RWPE-1 was grown in keratinocyte media with supplements (Lonza). All cell lines were tested and found to be free of mycoplasma contamination.
(§1) Cells were seeded in 96-well plates at 2000-10,000 cells/well (optimum density for growth) in a total volume of 100 μl media containing 10% FBS. Serially diluted compounds in 100 μl media were added to the cells 12 h later. Following 96 h. incubation, cell viability was assessed by Cell-Titer GLO (Promega). The values were normalized and IC50 was calculated using GraphPad Prism software. […] After 12 days cells were fixed with methanol, stained with crystal violet and photographed. For colorimetric assays, the stained wells were treated with 500 μl 10% acetic acid and the absorbance was measured at 560 nm using a spectrophotometer.

AR-positive cells = test: Long-term colony formation assay; assay type: cell-based; conditions: 100 nM, 12 days, FIG. 3
Experimental: as §1

PSA and ERG = test: QRT-PCR and immunoblot of AR-target genes in VCaP; assay type: cell-based; conditions: VCaP cells; FIGS. 4 and 5
Experimental: Total RNA was isolated from cells using RNeasy Mini Kit (Qiagen) and cDNA was synthesized from 1,000 ng total RNA using SuperScript III First-Strand Synthesis SuperMix (Invitrogen). QPCRs were performed in duplicate or triplicate using Taqman assays (Applied Biosystems) or standard SYBR green reagents and protocols on a StepOnePlus Real-Time PCR system (Applied Biosystems). The target mRNA expression was quantified using ΔΔCt method and normalized to GAPDH expression. All primers were designed using Primer 3 (http://frodo.wi.mit.edu/primer3/) and synthesized by Integrated DNA Technologies (Coralville, Iowa).
For Western blot analysis, 200 ug total protein extract was boiled in sample buffer and 10-20 μg aliquots were separated by SDS-PAGE and transferred onto Polyvinylidene Difluoride membrane (GE Healthcare). The membrane was incubated for one hour in blocking buffer [Tris-buffered saline, 0.1% Tween (TBS-T), 5% nonfat dry milk] followed by incubation overnight at 4° C. with the primary antibody. Following a wash with TBS-T, the blot was incubated with horseradish peroxidase-conjugated secondary antibody and signals were visualized by enhanced chemiluminescence system as per manufacturer's protocol (GE Healthcare).

VCaP or LNCaP cells = test: Matrigel invasion assay, VCaP or LNCaP cells; assay type: cell-based; conditions: 500 nM
Experimental: Medium containing 10% FBS in the lower chamber served as chemoattractant. […] After 48 h, the non-invading cells and EC matrix were gently removed with a cotton swab and invasive cells located on the lower side of the chamber were stained with crystal violet, air dried, photographed and counted.

BRD4 = test: ChIP-seq of BRD4 in DHT-stimulated VCaP cells; assay type: cell-based; conditions: JQ1 500 nM, FIG. 20
Experimental: The ChIP assays for BRD2, BRD3, BRD4, AR, RNA PolII, ERG and H3K27ac were performed using HighCell ChIP kit (Diagenode) according to manufacturer's protocol. […] Next, cells were cross-linked for 10 min. with 1% formaldehyde. […] Chromatin equivalent to 5×10^6 cells were used for ChIP using different antibodies. ChIP DNA was isolated (IPure Kit, Diagenode) from samples by incubation with the antibody at 4° C. overnight followed by wash and reversal of cross-linking. The ChIP-seq sample preparation for sequencing was performed according to the manufacturer's instructions (Illumina). […] A single A-base was added to fragment ends by Klenow fragment (3′ to 5′ exo minus; NEB) followed by ligation of Illumina adaptors (Quick ligase, NEB). The adaptor-modified DNA fragments were enriched by PCR using the Illumina Barcode primers and Phusion DNA polymerase (NEB). PCR products were size selected using 3% NuSieve agarose gels (Lonza) followed by gel extraction using QIAEX II reagents (QIAGEN). Libraries were quantified with the Bioanalyzer 2100 (Agilent) and sequenced on the Illumina HiSeq 2000 Sequencer (100 nucleotide read length).
For enrichment plots shown in FIGS. 17, 19 and 20, identified peaks for each sample are centered by peak summit and average coverage per million was counted within 1500 bp relative to the peak center.

[2] = tested on: RWPE and PC3 cells overexpressing ERG; test: Matrigel invasion assay, RWPE and PC3 cells overexpressing ERG; assay type: cell-based; conditions: 500 nM
Experimental: Medium containing 10% FBS in the lower chamber served as chemoattractant. […] For colorimetric assays, the inserts were treated with 150 μl of 10% acetic acid and the absorbance measured at 560 nm using a spectrophotometer (GE Healthcare).

VCaP tumor xenograft = tested on: VCaP tumor xenograft
Experimental: (§2) Four week-old male SCID C.B17 mice were procured from a breeding colony at University of Michigan. All procedures involving mice were approved by the University Committee on Use and Care of Animals (UCUCA) at the University of Michigan and conform to all regulatory standards. Mice were anesthetized using 2% Isoflurane (inhalation) and 2×10^6 VCaP prostate cancer cells suspended in 100 μl of PBS with 50% Matrigel (BD Biosciences) were implanted subcutaneously into the dorsal flank on both sides of the mice. […] Growth in tumor volume was recorded using digital calipers and tumor volumes were estimated using the formula (π/6) (L×W^2), where L=length of tumor and W=width. Loss of body weight during the course of the study was also monitored. At the end of the studies mice were sacrificed and tumors extracted and weighed. Additionally, femur bone marrow, liver and spleen were harvested to examine spontaneous metastasis by detecting human-Alu sequence. […] All procedures involving mice were approved by the University Committee on Use and Care of Animals (UCUCA) at the University of Michigan and conform to all regulatory standards.

[3] = tested on: castration-resistant VCaP tumor xenografts; test: Castration-resistant VCaP tumor xenograft (CRPC experiment); assay type: in vivo; conditions: castrated mice; 50 mg/kg, 5 days/week; FIG. 26
Experimental: as §2

MYC signature [4] = test: Gene expression array, GSEA of MYC signature, 22RV1; assay type: cell-based; conditions: 22RV1 after JQ1 treatment
Experimental: (§3) Cells treated with only vehicle or 10 nM DHT served as controls. […] Expression profiling was performed using the Agilent Whole Human Genome Oligo Microarray (SantaClara, Calif.) according to the manufacturer's protocol. All samples were run in technical duplicates or quadruplets against control. Over- and under-expressed gene sets were generated by filtering to include only 2-fold average over- or underexpression (Log ratio with p<0.001) in all hybridizations.

MYC signature [5] = test: Gene expression array, GSEA of MYC signature, DU145; assay type: cell-based; conditions: DU145 after JQ1 treatment
Experimental: as §3

[6] = gene set SCHLOSSER_MYC_AND_SERUM_RESPONSE_SYNERGY
[7] = gene set SCHLOSSER_MYC_TARGETS_AND_SERUM_RESPONSE_UP
[8] = gene set SCHUHMACHER_MYC_TARGETS_UP

Which results are given for `Cc1sc2c(c1C)C(c1ccc(Cl)cc1)=N[C@@H](CC(=O)OC(C)(C)C)c1nnc(C)n1-2` [JQ1]?
sensitivity of prostate cell lines [1]: sensitive; long term colony-formation (AR-positive cells): severely inhibited; PSA and ERG mRNA and protein level (PSA and ERG): dose-dependent decrease in PSA and ERG; cell invasion (VCaP or LNCaP cells): inhibited invasion; DHT induced BRD4 recruitment to the AR-BRD4 shared loci (BRD4): almost completely abrogated; ERG-mediated invasion [2]: attenuation of ERG-mediated invasion; tumor volume/weight (VCaP tumor xenograft; VCaP tumor-bearing mice, JQ1 50 mg/kg, MDV3100 10 mg/kg, 5 days/week, FIGS. 23-25): significant reduction in tumor volume/weight; tolerability (VCaP tumor xenograft; mouse, in vivo): well tolerated; reduction in castration-resistant tumors [3]: 50%; NES (MYC signature [4]; gene set MYC_UP.V1_UP): −1.712; NES (MYC signature [4]; [6]): −1.521; NES (MYC signature [4]; [7]): 1.353; NES (MYC signature [4]; [8]): −1.851; NES (MYC signature [5]; gene set MYC_UP.V1_UP): −0.952; NES (MYC signature [5]; [6]): −1.085; NES (MYC signature [5]; [7]): −0.734; NES (MYC signature [5]; [8]): −1.086
